For this test, the system named is P388 leukemia ip, CD2F1 mice, survival T/C. Description: NCI In Vivo Anticancer Drug Screen. Data for tumor model P388 Leukemia (intraperitoneal) in CD2F1 (CDF1) mice. Conditions: endpoint: median survival time, higher = longer survival. In short, it runs like this: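 Mice carrying the transplanted tumor received test compound or vehicle. Survival was recorded in each group, and the value is the treated-group measurement divided by that of the vehicle-treated control group.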

The mark [1] stands for this setting: dose: 50.0 mg/kg/injection, schedule: Q01DX005 (ip), vehicle: Klucel (hydroxypropylcellulose) (HPC).
Setting [2] is: dose: 100.0 mg/kg/injection, schedule: Q01DX005 (ip), vehicle: Klucel (hydroxypropylcellulose) (HPC).
[3] abbreviates: dose: 200.0 mg/kg/injection, schedule: Q01DX005 (ip), vehicle: Klucel (hydroxypropylcellulose) (HPC).

“And” between values parts separate entries of the source, which are not always exact repeats. Equal values may be shown once. Toxic doses and inconclusive results are not listed.

For `O=C1CN(Cc2ccccc2)CC(=O)N2Cc3ccccc3CN12`, the T/C (dose: 12.5 mg/kg/injection, schedule: Q01DX005 (ip), vehicle: saline with Tween-80) is 98 % of control; the T/C (dose: 25.0 mg/kg/injection, schedule: Q01DX005 (ip), vehicle: saline with Tween-80) is 105 % of control; the T/C (dose: 50.0 mg/kg/injection, schedule: Q01DX005 (ip), vehicle: saline with Tween-80) was 102 % of control.

Consider `CCCCCCCCCCNCCS`, for which the T/C is 91 % of control (dose: 5.0 mg/kg/injection, schedule: Q01DX009 (ip), vehicle: saline); 91 % of control (dose: 10.0 mg/kg/injection, schedule: Q01DX009 (ip), vehicle: saline); 95 % of control (dose: 20.0 mg/kg/injection, schedule: Q01DX009 (ip), vehicle: saline).

On to `NNP(=O)(NN)C(Cl)(Cl)Cl`, for which the T/C (dose: 15.0 mg/kg/injection, schedule: Q01DX005 (ip), vehicle: saline) is 101 % of control; the T/C (dose: 30.0 mg/kg/injection, schedule: Q01DX005 (ip), vehicle: saline) is 100 % of control; the T/C (dose: 60.0 mg/kg/injection, schedule: Q01DX005 (ip), vehicle: saline) is 108 % of control and 114 % of control.

Consider `Cc1cnn(-c2ccccc2)[n+]1[O-]`, for which the T/C is 99 % of control (dose: 50.0 mg/kg/injection, schedule: Q01DX005 (ip), vehicle: saline); 96 % of control (dose: 100.0 mg/kg/injection, schedule: Q01DX005 (ip), vehicle: saline); 102 % of control (dose: 200.0 mg/kg/injection, schedule: Q01DX005 (ip), vehicle: saline).

With `CC1(C)CN(c2ccccc2)N(CN2CCOCC2)C1=O`, the T/C (dose: 3.12 mg/kg/injection, schedule: Q01DX009 (ip), vehicle: Klucel (hydroxypropylcellulose) (HPC)) is 103 % of control; the T/C (dose: 6.25 mg/kg/injection, schedule: Q01DX009 (ip), vehicle: Klucel (hydroxypropylcellulose) (HPC)) was 97 % of control; the T/C (dose: 12.5 mg/kg/injection, schedule: Q01DX009 (ip), vehicle: Klucel (hydroxypropylcellulose) (HPC)) was 104 % of control.

With `COc1ccc(C2CC(=O)NC(NC#N)=N2)c(O)c1` (configuration not stated), the T/C was 104 % of control (dose: 50.0 mg/kg/injection, schedule: Q01DX009 (ip), vehicle: saline); 102 % of control (dose: 100.0 mg/kg/injection, schedule: Q01DX009 (ip), vehicle: saline); 100 % of control (dose: 200.0 mg/kg/injection, schedule: Q01DX009 (ip), vehicle: saline).

`O=C(NC(C(=O)NC(C(=O)O)C1CC(Cl)=NO1)C1CC(Cl)=NO1)OCC1c2ccccc2-c2ccccc21` (configuration not stated): the T/C runs as follows: (dose: 5.0 mg/kg/injection, schedule: Q04DX003 (ip), vehicle: other) 120 % of control; (dose: 12.5 mg/kg/injection, schedule: Q04DX003 (ip), vehicle: other) 150 % of control; (dose: 25.0 mg/kg/injection, schedule: Q04DX003 (ip), vehicle: other) 160 % of control; (dose: 40.0 mg/kg/injection, schedule: Q04DX003 (ip), vehicle: other) 172 % of control; (dose: 50.0 mg/kg/injection, schedule: Q04DX003 (ip), vehicle: other) 222 % of control; (dose: 80.0 mg/kg/injection, schedule: Q04DX003 (ip), vehicle: other) 201 % of control. Further, the T/C (dose: 160.0 mg/kg/injection, schedule: Q04DX003 (ip), vehicle: other) is 158 % of control.

For the molecule `CCOC(=O)C1=C(C)NC(=O)NC1c1cc(OC)c(OC)c(OC)c1` (configuration not stated), the T/C runs as follows: under setting [1], 98 % of control; under setting [2], 96 % of control; under setting [3], 94 % of control.

As for `CCON1C(=O)C(C)c2ccccc21` (configuration not stated), the T/C was 98 % of control (dose: 60.0 mg/kg/injection, schedule: Q01DX005 (ip), vehicle: saline with Tween-80); 102 % of control (dose: 120.0 mg/kg/injection, schedule: Q01DX005 (ip), vehicle: saline with Tween-80); 102 % of control (dose: 240.0 mg/kg/injection, schedule: Q01DX005 (ip), vehicle: saline with Tween-80).

For `O=C1C(=O)c2c(ccc3ccccc23)-c2ccccc21`, the T/C reads like this: under setting [1], 100 % of control; (dose: 50.0 mg/kg/injection, schedule: Q01DX009 (ip), vehicle: Klucel (hydroxypropylcellulose) (HPC)) 104 % of control; under setting [2], 97 % of control; (dose: 100.0 mg/kg/injection, schedule: Q01DX009 (ip), vehicle: Klucel (hydroxypropylcellulose) (HPC)) 100 % of control; under setting [3], 104 % of control; (dose: 200.0 mg/kg/injection, schedule: Q01DX009 (ip), vehicle: Klucel (hydroxypropylcellulose) (HPC)) 86 % of control. The T/C (dose: 400.0 mg/kg/injection, schedule: Q01DX009 (ip), vehicle: Klucel (hydroxypropylcellulose) (HPC)) is 94 % of control.

Consider `O=CC(NC(=O)N(CCCl)N=O)C(O)C(O)C(O)CO` (configuration not stated), for which the T/C (dose: 0.78 mg/kg/injection, schedule: Q01DX009 (ip), vehicle: saline) is 156 % of control; the T/C (dose: 1.5 mg/kg/injection, schedule: Q01DX005 (ip), vehicle: water) is 158 % of control; the T/C (dose: 1.5 mg/kg/injection, schedule: Q04DX003 (ip), vehicle: saline) is 153 % of control; the T/C (dose: 1.56 mg/kg/injection, schedule: Q01DX009 (ip), vehicle: saline) is 195 % of control; the T/C (dose: 3.0 mg/kg/injection, schedule: Q01DX005 (ip), vehicle: saline) is 169 % of control; the T/C (dose: 3.0 mg/kg/injection, schedule: Q01DX005 (ip), vehicle: water) is 163 % of control and 187 % of control. For the same molecule, the T/C (dose: 3.0 mg/kg/injection, schedule: Q04DX003 (ip), vehicle: saline) is 174 % of control; the T/C (dose: 3.12 mg/kg/injection, schedule: Q01DX009 (ip), vehicle: saline) is 263 % of control; the T/C (dose: 4.32 mg/kg/injection, schedule: Q04DX002 (ip), vehicle: saline) was 166 % of control; the T/C (dose: 6.0 mg/kg/injection, schedule: Q01DX001 (ip), vehicle: saline) was 157 % of control; the T/C (dose: 6.0 mg/kg/injection, schedule: Q01DX001 (iv), vehicle: saline) was 109 % of control; the T/C (dose: 6.0 mg/kg/injection, schedule: Q01DX005 (ip), vehicle: saline) is 205 % of control. Further, the T/C is, setting by setting: (dose: 6.0 mg/kg/injection, schedule: Q01DX005 (ip), vehicle: water) 199 % of control and 264 % of control; (dose: 6.0 mg/kg/injection, schedule: Q01DX005 (iv), vehicle: saline) 192 % of control; (dose: 6.0 mg/kg/injection, schedule: Q04DX003 (ip), vehicle: saline) 205 % of control; (dose: 7.2 mg/kg/injection, schedule: Q04DX002 (ip), vehicle: saline) 169 % of control; (dose: 12.0 mg/kg/injection, schedule: Q01DX001 (ip), vehicle: saline) 212 % of control; (dose: 12.0 mg/kg/injection, schedule: Q01DX005 (ip), vehicle: saline) 258 % of control. The T/C (dose: 12.0 mg/kg/injection, schedule: Q01DX005 (ip), vehicle: water) was 265 % of control and 91 % of control; the T/C (dose: 12.0 mg/kg/injection, schedule: Q01DX005 (iv), vehicle: saline) is 119 % of control; the T/C (dose: 12.0 mg/kg/injection, schedule: Q04DX002 (ip), vehicle: saline) was 212 % of control; the T/C (dose: 12.0 mg/kg/injection, schedule: Q04DX003 (ip), vehicle: saline) is 285 % of control and 371 % of control and 401 % of control; the T/C (dose: 18.0 mg/kg/injection, schedule: Q04DX003 (ip), vehicle: saline) was 153 % of control and 175 % of control; the T/C (dose: 20.0 mg/kg/injection, schedule: Q04DX002 (ip), vehicle: saline) is 287 % of control. The T/C (dose: 24.0 mg/kg/injection, schedule: Q01DX001 (ip), vehicle: saline) is 277 % of control; the T/C (dose: 24.0 mg/kg/injection, schedule: Q01DX001 (iv), vehicle: saline) was 166 % of control; the T/C (dose: 27.0 mg/kg/injection, schedule: Q04DX003 (ip), vehicle: saline) was 96 % of control; the T/C (dose: 40.0 mg/kg/injection, schedule: Q04DX003 (ip), vehicle: saline) is 74 % of control and 98 % of control.

With `O=P(O)(O)SP(=O)(O)O.[Ni]`, the T/C reads like this: (dose: 12.5 mg/kg/injection, schedule: Q01DX001 (ip), vehicle: suspension in saline) 102 % of control and 94 % of control; (dose: 25.0 mg/kg/injection, schedule: Q01DX001 (ip), vehicle: suspension in saline) 99 % of control and 94 % of control; (dose: 50.0 mg/kg/injection, schedule: Q01DX001 (ip), vehicle: suspension in saline) 122 % of control.

As for `COc1cc(O)c(/C=N/Nc2ccc3ccccc3n2)c(OC)c1`, the T/C runs as follows: (dose: 100.0 mg/kg/injection, schedule: Q01DX001 (ip), vehicle: saline with Tween-80) 91 % of control; (dose: 200.0 mg/kg/injection, schedule: Q01DX001 (ip), vehicle: saline with Tween-80) 104 % of control; (dose: 400.0 mg/kg/injection, schedule: Q01DX001 (ip), vehicle: saline with Tween-80) 89 % of control.
